Patent US11725096B2, “Zinc oxide complexes” (MARY KAY INC., priority 2010, dated 2023)

Columns and labels:
[1] = cited from earlier work
[2] = Solubility / dissociation of the complexes in water; settings: approximately 0.1 g in 10 Ml deionized water, after standing overnight
Procedure: Zinc oxide and lactic acid were mixed in an ethanol solution (reagent grade ethyl alcohol denatured with methanol and isopropyl alcohol) containing approximately 10% water at room temperature with continuous stirring using a magnetic stirrer. […] The crystals were isolated by filtering.
(§1) Specifically, approximately 0.1 g zinc oxide/lactic acid was dissolved in 10 Ml of deionized water via vortexing. […] Specifically, approximately 0.1 g zinc oxide was mixed in 10 Ml sodium lactate solution (containing approximately 0.88 g sodium lactate in 10 Ml deionized water). The mixture was vortexed to dissolve the particles such that no large visible particles remained.

[3] = Procedure: To further test solubility of the zinc oxide/lactic acid complexes in a solution comprising lactic acid and water, increasing amounts of lactic acid were added to 0.725 g zinc oxide/lactic acid complexes. Specifically, the following amounts of 88% lactic acid were added to the zinc oxide/lactic acid complexes in 10 Ml deionized water: 0.0273 g, 0.0262 g, 0.0345 g, 0.0575 g, 0.0757 g, 0.1166 g, 0.1562 g, 0.1389 g, 0.1486 g, and 0.2810 g. Approximately 0.3 g zinc oxide/lactic acid complexes were also mixed with 0.0670 g or 0.2517 g 88% lactic acid.
[4] = type: physicochemical
Procedure: as §1

| Compound | solubility in neutral aqueous solutions [1] | Ph of the mixture in water [2] | solubility in lactic acid and water (appearance of the mixture) [3] | solubility in sodium lactate [4] | Ph of the mixture in sodium lactate solution ([4]; approximately 0.1 g in 10 Ml sodium lactate solution, overnight) |
| --- | --- | --- | --- | --- | --- |
| [O]=[Zn] [Zinc oxide, zinc oxide] | nearly insoluble | – | – | – | – |
| CC1[O][Zn]2([OH])([O]C1=O)[O]C(=O)C(C)[O]2 (centres unmarked) [zinc oxide/lactic acid complexes] | – | approximately 6 | milky mixture that settles upon standing | soluble in sodium lactate | approximately 6 |
